These results are taken from US12421226B2, “Heteroaryl compounds as necrosis inhibitors, composition and method using the same” (Accro Bioscience (HK), priority 2019, dated 2025).

Counter-ions that a name gives are not always drawn.

The first assay has as its system HT29 cells. Put plainly: Necroptosis inhibition in HT29 cell assay (TNF-α/Smac mimetic/z-VAD induced, cell viability). Particulars: Homo sapiens, HT-29, 1 h pre-treatment with compound, then TNF-α 40 ng/mL + Smac mimetic 100 nM + z-VAD 20 μM for 48 hours. The class given is cell-based. Here is the method:
1. Compounds Tested for Necroptosis Inhibition Activities in HT29 Cell Assay
For this assay, HT29 cells were added to 96-well plates and then were pre-treated with 10 μM of the test compound for one hour. Then the cells were treated with tumor necrosis factor alpha (TNF-α, 40 ng/mL), Smacmimetic (cIAP inhibitor) (100 nM) and z-VAD (capase inhibitor, from calbiochem) (20 μM) for 48 hours, and the viability of cells was quantified. DMSO pretreatment group was used as negative controls, Nec-1 (known necroptosis inhibitor, from Biomol) pretreatment group was used as positive controls.
For `CC(=O)Nc1nc2ccc(-c3cnc4ccn(C(=O)OC5CCCCC5)c4c3)cc2s1` [Compound C1, cyclohexyl 6-(2-acetamido-1,3-benzothiazol-6-yl)pyrrolo[3,2-b]pyridine-1-carboxylate], the IC50 stood at 43 nM.

Turning to `CC(=O)Nc1nc2ccc(-c3cnc4ncn(C(=O)OC5CCCCC5)c4c3)cc2s1` [Compound C2, cyclohexyl 6-(2-acetamido-1,3-benzothiazol-6-yl)imidazo[4,5-b]pyridine-1-carboxylate], the half-inhibitory concentration (IC50) amounted to 11000 nM. Still for that read-out and setting: the result for `O=C(Nc1nc2ccc(-c3cnc4ccn(C(=O)OC5CCOCC5)c4c3)nc2s1)C1CC1` [Compound C3, tetrahydropyran-4-yl 6-[2-(cyclopropanecarbonylamino)thiazolo[5,4-b]pyridin-5-yl]pyrrolo[3,2-b]pyridine-1-carboxylate] reads 9.6 nM.

Take `O=C(Nc1nc2ccc(-c3cnc4ccn(C(=O)OC5CCC(F)(F)CC5)c4c3)cc2s1)C1CC1` [Compound C4, (4,4-difluorocyclohexyl) 6-[2-(cyclopropanecarbonylamino)-1,3-benzothiazol-6-yl]pyrrolo[3,2-b]pyridine-1-carboxylate]: the IC50 turned out to be 83 nM. Same read-out and setting: the same measure for `CNC(=O)Nc1nc2ccc(-c3cnc4ccn(C(=O)OC5CCOCC5)c4c3)cc2s1` [Compound C7, tetrahydropyran-4-yl 6-[2-(methylcarbamoylamino)-1,3-benzothiazol-6-yl]pyrrolo[3,2-b]pyridine-1-carboxylate]: 32 nM; for `O=C(NC1CCOCC1)c1c[nH]c2ncc(-c3ccc4nc(NC(=O)C5CC5)sc4c3)cc12` [Compound C9, 5-[2-(cyclopropanecarbonylamino)-1,3-benzothiazol-6-yl]-N-tetrahydropyran-4-yl-1H-pyrrolo[2,3-b]pyridine-3-carboxamide]: 5200 nM. On the same count and under the same terms, the same measure for `O=C(NC1CCOCC1)c1n[nH]c2ncc(-c3ccc4nc(NC(=O)C5CC5)sc4c3)cc12` [Compound C10, 5-[2-(cyclopropanecarbonylamino)-1,3-benzothiazol-6-yl]-N-tetrahydropyran-4-yl-1H-pyrazolo[3,4-b]pyridine-3-carboxamide]: 12000 nM; for `O=C(Nc1nc2ccc(-c3cnc4cnn(C(=O)OC5CCOCC5)c4c3)cc2s1)C1CC1` [Compound C11, tetrahydropyran-4-yl 6-[2-(cyclopropanecarbonylamino)-1,3-benzothiazol-6-yl]pyrazolo[4,3-b]pyridine-1-carboxylate]: 4100 nM; for `O=C(NC1CCOCC1)c1cccc2ncc(-c3ccc4nc(NC(=O)C5CC5)sc4c3)cc12` [Compound C13, 3-[2-(cyclopropanecarbonylamino)-1,3-benzothiazol-6-yl]-N-tetrahydropyran-4-yl-quinoline-5-carboxamide]: 13000 nM. The same measure, in the same setting: the same measure for `O=C(Nc1nc2ccc(-c3cnc4ccn(C(=O)OC5CCCCC5)c4c3)cc2s1)C1CC1` [Compound C15]: 7 nM; for `CNC(=O)Nc1nc2ccc(-c3cnc4ccn(C(=O)OC5CCCCC5)c4c3)cc2s1` [Compound C16, cyclohexyl 6-[2-(methylcarbamoylamino)-1,3-benzothiazol-6-yl]pyrrolo[3,2-b]pyridine-1-carboxylate]: 25 nM; for `O=C(Nc1cn2cc(-c3cnc4ccn(C(=O)OC5CCCCC5)c4c3)ccc2n1)C1CC1` [Compound C17]: 16 nM. As for `CC(=O)Nc1nc2ccc(-c3cnc4scc(C(=O)NC5CCCCC5)c4c3)cc2s1` [Compound C19, 5-(2-acetamido-1,3-benzothiazol-6-yl)-N-cyclohexyl-thieno[2,3-b]pyridine-3-carboxamide], the IC50 turned out to be 11 nM.

As to `O=C(Nc1nc2ccc(-c3cnc4ccn(C(=O)NC5CCOCC5)c4c3)cc2s1)C1CC1` [Compound C21, 6-[2-(cyclopropanecarbonylamino)-1,3-benzothiazol-6-yl]-N-tetrahydropyran-4-yl-pyrrolo[3,2-b]pyridine-1-carboxamide], the half-maximal inhibitory concentration (IC50) turned out to be 22 nM.

As for `CC(=O)Nc1nc2ccc(-c3cnc4snc(C(=O)NC5CCCCC5)c4c3)cc2s1` [Compound C22, 5-(2-acetamido-1,3-benzothiazol-6-yl)-N-cyclohexyl-isothiazolo[5,4-b]pyridine-3-carboxamide], the half-inhibitory concentration (IC50) amounted to 35 nM. Still for that read-out and setting: the result for `CCC(CC)OC(=O)n1ccc2ncc(-c3ccc4nc(NC(=O)C5CC5)sc4c3)cc21` [Compound C24, 1-ethylpropyl 6-[2-(cyclopropanecarbonylamino)-1,3-benzothiazol-6-yl]pyrrolo[3,2-b]pyridine-1-carboxylate] reads 33 nM; that for `O=C(Nc1nc2ccc(-c3cnc4ccn(C(=O)CC5CCCCC5)c4c3)cc2s1)C1CC1` [Compound C25, N-[6-[1-(2-cyclohexylacetyl)pyrrolo[3,2-b]pyridin-6-yl]-1,3-benzothiazol-2-yl]cyclopropanecarboxamide], 29 nM; that for `CCC(=O)Nc1nc2ccc(-c3cnc4ccn(C(=O)OC5CCCCC5)c4c3)cc2s1` [Compound C26, cyclohexyl 6-[2-(propanoylamino)-1,3-benzothiazol-6-yl]pyrrolo[3,2-b]pyridine-1-carboxylate], 50 nM. As for `CNC(=O)Nc1nc2ccc(-c3cnc4snc(C(=O)NC5CCCCC5)c4c3)cc2s1` [Compound C27, N-cyclohexyl-5-[2-(methylcarbamoylamino)-1,3-benzothiazol-6-yl]isothiazolo[5,4-b]pyridine-3-carboxamide], the half-maximal inhibitory concentration (IC50) is 33 nM. Same read-out and setting: the same measure for `CNCC(C)NC(=O)c1csc2ncc(-c3ccc4nc(NC(=O)C5CC5)sc4c3)cc12` (stereo not drawn) [Compound C28, 5-[2-(cyclopropanecarbonylamino)-1,3-benzothiazol-6-yl]-N-[1-methyl-2-(methylamino)ethyl]thieno[2,3-b]pyridine-3-carboxamide]: 380 nM; for `CCOC(=O)Nc1nc2ccc(-c3cnc4snc(C(=O)NC5CCCCC5)c4c3)cc2s1` [Compound C29, ethyl N-[6-[3-(cyclohexylcarbamoyl)isothiazolo[5,4-b]pyridin-5-yl]-1,3-benzothiazol-2-yl]carbamate]: 3.1 nM. Still for that read-out and setting: the same measure for `CCC(CC)NC(=O)c1nsc2ncc(-c3ccc4nc(NC(=O)C5CC5)sc4c3)cc12` [Compound C31, 5-[2-(cyclopropanecarbonylamino)-1,3-benzothiazol-6-yl]-N-(1-ethylpropyl)isothiazolo[5,4-b]pyridine-3-carboxamide]: 11 nM; for `CNCC(C)NC(=O)c1nsc2ncc(-c3ccc4nc(NC(=O)C5CC5)sc4c3)cc12` (stereo not drawn) [Compound C32, 5-[2-(cyclopropanecarbonylamino)-1,3-benzothiazol-6-yl]-N-[1-methyl-2-(methylamino)ethyl]isothiazolo[5,4-b]pyridine-3-carboxamide]: 1400 nM. On to `CCOC(=O)Nc1nc2ccc(-c3cnc4ccn(C(=O)OC5CCCCC5)c4c3)cc2s1` [Compound C34, cyclohexyl 6-[2-(ethoxycarbonylamino)-1,3-benzothiazol-6-yl]pyrrolo[3,2-b]pyridine-1-carboxylate], for which the IC50 is 150 nM. Consider `O=C(NC1CCOCC1)c1nsc2ncc(-c3ccc4nc(NC(=O)C5CC5)cn4c3)cc12` [Compound C35, 5-[2-(cyclopropanecarbonylamino)imidazo[1,2-a]pyridin-6-yl]-N-tetrahydropyran-4-yl-isothiazolo[5,4-b]pyridine-3-carboxamide], for which the IC50 was 160 nM.

In the case of `CNCC(C)OC(=O)n1ccc2ncc(-c3ccc4nc(NC(=O)C5CC5)sc4c3)cc21` (stereo not drawn) [Compound C36, [1-methyl-2-(methylamino)ethyl] 6-[2-(cyclopropanecarbonylamino)-1,3-benzothiazol-6-yl]pyrrolo[3,2-b]pyridine-1-carboxylate, hydrochloride salt], the concentration for half-maximal inhibition (IC50) was determined as 16000 nM. Still for that read-out and setting: the result for `CCC(CC)NC(=O)c1csc2ncc(-c3ccc4nc(NC(=O)C5CC5)sc4c3)cc12` [Compound C37, 5-[2-(cyclopropanecarbonylamino)-1,3-benzothiazol-6-yl]-N-(1-ethylpropyl)thieno[2,3-b]pyridine-3-carboxamide] reads 3.2 nM; that for `O=C(NC1CCC(F)(F)CC1)c1csc2ncc(-c3ccc4nc(NC(=O)C5CC5)sc4c3)cc12` [Compound C38, 5-[2-(cyclopropanecarbonylamino)-1,3-benzothiazol-6-yl]-N-(4,4-difluorocyclohexyl)thieno[2,3-b]pyridine-3-carboxamide], 1.8 nM. Still for that read-out and setting: the result for `CCOC(=O)Nc1nc2ccc(-c3cnc4scc(C(=O)NC5CCCCC5)c4c3)cc2s1` [Compound C39, ethyl N-[6-[3-(cyclohexylcarbamoyl)thieno[2,3-b]pyridin-5-yl]-1,3-benzothiazol-2-yl]carbamate] reads 48 nM; that for `O=C(NC1CCOCC1)c1csc2ncc(-c3ccc4nc(NC(=O)C5CC5)cn4c3)cc12` [Compound C40, 5-[2-(cyclopropanecarbonylamino)imidazo[1,2-a]pyridin-6-yl]-N-tetrahydropyran-4-yl-thieno[2,3-b]pyridine-3-carboxamide], 60 nM. Same read-out and setting: the same measure for `O=C(NC1CCCCC1)c1csc2ncc(-c3ccc4nc(NC(=O)C5CC5)cn4c3)cc12` [Compound C41, N-cyclohexyl-5-[2-(cyclopropanecarbonylamino)imidazo[1,2-a]pyridin-6-yl]thieno[2,3-b]pyridine-3-carboxamide]: 2 nM.

In the next assay the test system is L929 mouse skin fibroblast cells. Briefly: Necroptosis inhibition in L929 cell assay (TNF-α/z-VAD induced, cell viability by ATP levels). It is filed as cell-based. The conditions noted are these: Mus musculus, 1 h pre-treatment with compound, then TNF-α 40 ng/mL + z-VAD 20 μM for 48 hours. Here is the method:
2. Compounds Tested for Necroptosis Inhibition Activities in L929 Cell Assay
Mouse L929 mouse skin fibroblast cells were added to 96-well plates and then were pre-treated with 10 μM of the test compound for one hour. Then the cells were treated with TNF-α (40 ng/mL, lab-made) and z-VAD (capase inhibitor, from calbiochem) (20 μM) for 48 hours, and the viability of cells was quantified by detecting adenosine triphosphate (ATP) levels. DMSO pretreatment group was used as negative controls, Nec-1 (known necroptosis inhibitor, from Biomol) pretreatment group was used as positive controls.
In the case of `O=C(Nc1nc2ccc(-c3cnc4ccn(C(=O)OC5CCOCC5)c4c3)nc2s1)C1CC1` [Compound C3, tetrahydropyran-4-yl 6-[2-(cyclopropanecarbonylamino)thiazolo[5,4-b]pyridin-5-yl]pyrrolo[3,2-b]pyridine-1-carboxylate], the IC50 is 72.8 nM. On the same count and under the same terms, the result for `O=C(Nc1nc2ccc(-c3cnc4ccn(C(=O)OC5CCC(F)(F)CC5)c4c3)cc2s1)C1CC1` [Compound C4, (4,4-difluorocyclohexyl) 6-[2-(cyclopropanecarbonylamino)-1,3-benzothiazol-6-yl]pyrrolo[3,2-b]pyridine-1-carboxylate] reads 3.2 nM.

The IC50 is the concentration at which inhibition is half-maximal.
